# Measurements reported in PMC5218480 (PLoS ONE, 2017).
# Tested on: MV-4-11 cells
# Assay: Gene expression microarray analysis (Affymetrix PrimeView) and GSEA
# Assay type: cell-based, human
# Set-up: RFU PODN (11730768_x_at) / Fold change /veh PODN (11730768_x_at) / RFU LINC00158 (11744669_a_at) / Fold change /veh LINC00158 (11744669_a_at) / RFU DUSP10 (11751237_a_at) / Fold change /veh DUSP10 (11751237_a_at) / RFU ID3 (11757404_x_at) / Fold change /veh ID3 (11757404_x_at) / RFU PLEKHG5 (11737974_s_at) / Fold change /veh PLEKHG5 (11737974_s_at) / RFU LRRC4B (11730491_at) / Fold change /veh LRRC4B (11730491_at) / RFU GIMAP4 (11747438_a_at) / Fold change /veh GIMAP4 (11747438_a_at) / RFU KRT8 (11758183_x_at) / Fold change /veh KRT8 (11758183_x_at) / RFU CNN1 (11734310_a_at) / Fold change /veh CNN1 (11734310_a_at) / RFU VPS37D (11726825_at) / Fold change /veh VPS37D (11726825_at) / RFU C10orf10 (11716522_x_at) / Fold change /veh C10orf10 (11716522_x_at) / RFU KIR2DL2 /// KIR2DL4 /// KIR2DL5A /// KIR2DL5B /// KIR2DS1 /// KIR2DS2 /// KIR2DS3 /// KIR2DS4 /// KIR3DL3 /// KIR3DL3 /// KIR3DS1 (11738374_at) / Fold change /veh KIR2DL2 /// KIR2DL4 /// KIR2DL5A /// KIR2DL5B /// KIR2DS1 /// KIR2DS2 /// KIR2DS3 /// KIR2DS4 /// KIR3DL3 /// KIR3DL3 /// KIR3DS1 (11738374_at) / RFU C1QL1 (11718748_at) / Fold change /veh C1QL1 (11718748_at) / RFU TMPRSS4 (11747572_a_at) / Fold change /veh TMPRSS4 (11747572_a_at) / RFU HAMP (11756126_x_at) / Fold change /veh HAMP (11756126_x_at) / RFU RNFT2 (11725882_a_at) / Fold change /veh RNFT2 (11725882_a_at) / RFU NR4A2 (11747474_a_at) / Fold change /veh NR4A2 (11747474_a_at) / RFU ABCC12 (11746883_a_at) / Fold change /veh ABCC12 (11746883_a_at) / RFU TMEM136 (11760407_x_at) / Fold change /veh TMEM136 (11760407_x_at) / RFU CLDN22 /// WWC2 (11732394_at) / Fold change /veh CLDN22 /// WWC2 (11732394_at) / RFU HLA-DPB1 (11760878_x_at) / Fold change /veh HLA-DPB1 (11760878_x_at) / RFU SPINT1 (11716480_a_at) / Fold change /veh SPINT1 (11716480_a_at) / RFU GAP43 (11754022_s_at) / Fold change /veh GAP43 (11754022_s_at) / RFU A4GNT (11735810_at) / Fold change /veh A4GNT (11735810_at) / RFU PRB3 (11715151_x_at) / Fold change /veh PRB3 (11715151_x_at) / RFU TUBB4B (11761932_at) / Fold change /veh TUBB4B (11761932_at) / RFU CAPN14 (11732068_a_at) / Fold change /veh CAPN14 (11732068_a_at) / RFU TMCC2 (11721928_a_at) / Fold change /veh TMCC2 (11721928_a_at) / RFU IRGQ (11745062_a_at) / Fold change /veh IRGQ (11745062_a_at) / RFU FAM174B (11720279_a_at) / Fold change /veh FAM174B (11720279_a_at) / RFU TMPRSS4 (11748680_a_at) / Fold change /veh TMPRSS4 (11748680_a_at) / RFU FAM212B (11763350_a_at) / Fold change /veh FAM212B (11763350_a_at) / RFU PLEKHG5 (11743358_a_at) / Fold change /veh PLEKHG5 (11743358_a_at) / RFU ZSCAN30 (11745921_a_at) / Fold change /veh ZSCAN30 (11745921_a_at) / RFU CMKLR1 (11741424_a_at) / Fold change /veh CMKLR1 (11741424_a_at) / RFU LOC101060620 /// MAPK8IP1 (11723275_at) / Fold change /veh LOC101060620 /// MAPK8IP1 (11723275_at) / RFU SPTSSB (11747773_x_at) / Fold change /veh SPTSSB (11747773_x_at) / RFU PRSS12 (11739890_at) / Fold change /veh PRSS12 (11739890_at) / RFU BIN1 (11741810_x_at) / Fold change /veh BIN1 (11741810_x_at) / RFU WNT11 (11732464_a_at) / Fold change /veh WNT11 (11732464_a_at) / RFU C10orf10 (11716521_a_at) / Fold change /veh C10orf10 (11716521_a_at) / RFU C5orf56 (11738089_at) / Fold change /veh C5orf56 (11738089_at) / RFU CYB561 (11721691_x_at) / Fold change /veh CYB561 (11721691_x_at) / RFU ANKRD19P (11752326_a_at) / Fold change /veh ANKRD19P (11752326_a_at) / RFU OR2T12 /// OR2T33 /// OR2T8 (11738714_s_at) / Fold change /veh OR2T12 /// OR2T33 /// OR2T8 (11738714_s_at) / RFU VCAN (11748164_a_at) / Fold change /veh VCAN (11748164_a_at) / RFU JSRP1 (11732532_at) / Fold change /veh JSRP1 (11732532_at) / RFU KRTAP10-11 (11738290_x_at) / Fold change /veh KRTAP10-11 (11738290_x_at) / RFU MYO3A (11730013_a_at) / Fold change /veh MYO3A (11730013_a_at) / RFU EBF3 (11725865_a_at) / Fold change /veh EBF3 (11725865_a_at) / RFU CAMK2N1 (11719241_x_at) / Fold change /veh CAMK2N1 (11719241_x_at) / RFU C5orf56 (11738088_a_at) / Fold change /veh C5orf56 (11738088_a_at) / RFU OLFML3 (11715873_a_at) / Fold change /veh OLFML3 (11715873_a_at) / RFU LOC100653217 /// NTM (11731650_a_at) / Fold change /veh LOC100653217 /// NTM (11731650_a_at) / RFU MAPK11 (11762145_a_at) / Fold change /veh MAPK11 (11762145_a_at) / RFU FIZ1 (11724087_x_at) / Fold change /veh FIZ1 (11724087_x_at) / RFU OASL (11726364_x_at) / Fold change /veh OASL (11726364_x_at) / RFU SOX15 (11748057_x_at) / Fold change /veh SOX15 (11748057_x_at) / RFU CD79A (11719716_a_at) / Fold change /veh CD79A (11719716_a_at) / RFU HIST1H1D (11736915_at) / Fold change /veh HIST1H1D (11736915_at) / RFU CASKIN2 (11723855_a_at) / Fold change /veh CASKIN2 (11723855_a_at) / RFU LOC730098 (11760151_x_at) / Fold change /veh LOC730098 (11760151_x_at) / RFU OR4N2 (11742367_at) / Fold change /veh OR4N2 (11742367_at) / RFU PRRT2 (11749266_a_at) / Fold change /veh PRRT2 (11749266_a_at) / RFU SNX32 (11753110_a_at) / Fold change /veh SNX32 (11753110_a_at) / RFU CDHR5 (11726645_a_at) / Fold change /veh CDHR5 (11726645_a_at) / RFU RCAN1 (11760418_a_at) / Fold change /veh RCAN1 (11760418_a_at) / RFU FAM167A (11723789_a_at) / Fold change /veh FAM167A (11723789_a_at) / RFU FAM26E (11764081_at) / Fold change /veh FAM26E (11764081_at) / RFU ISYNA1 (11749810_s_at) / Fold change /veh ISYNA1 (11749810_s_at) / RFU ACY1 (11761880_at) / Fold change /veh ACY1 (11761880_at) / RFU 11764098_at / Fold change /veh 11764098_at / RFU SAMD14 (11745864_x_at) / Fold change /veh SAMD14 (11745864_x_at) / RFU NPB (11741838_a_at) / Fold change /veh NPB (11741838_a_at) / RFU TMPRSS6 (11731388_a_at) / Fold change /veh TMPRSS6 (11731388_a_at) / RFU KRTAP10-2 (11738614_at) / Fold change /veh KRTAP10-2 (11738614_at) / RFU ARHGAP8 /// PRR5-ARHGAP8 (11727945_x_at) / Fold change /veh ARHGAP8 /// PRR5-ARHGAP8 (11727945_x_at) / RFU KRTAP5-7 /// NADSYN1 (11734609_at) / Fold change /veh KRTAP5-7 /// NADSYN1 (11734609_at) / RFU RASL12 (11751679_a_at) / Fold change /veh RASL12 (11751679_a_at) / RFU CDKN2B (11736163_a_at) / Fold change /veh CDKN2B (11736163_a_at) / RFU PRF1 (11729649_at) / Fold change /veh PRF1 (11729649_at) / RFU, ZNF638 /// ZNF638-IT1 / Fold change vs veh, ZNF638 /// ZNF638-IT1 / RFU, PANK3 / Fold change vs veh, PANK3 / RFU, SH3YL1 / Fold change vs veh, SH3YL1 / RFU, ZEB2 / Fold change vs veh, ZEB2 / RFU, NRIP1 / Fold change vs veh, NRIP1 / RFU, PTTG1IP / Fold change vs veh, PTTG1IP / RFU, CAPN2 / Fold change vs veh, CAPN2 / RFU, MED14 / Fold change vs veh, MED14 / RFU, SNORA58 / Fold change vs veh, SNORA58 / RFU, C1orf63 / Fold change vs veh, C1orf63 / RFU, LRRFIP1 / Fold change vs veh, LRRFIP1 / RFU, NDUFAF7 / Fold change vs veh, NDUFAF7 / RFU, SLC12A2 / Fold change vs veh, SLC12A2 / RFU, IBTK / Fold change vs veh, IBTK / RFU, ESF1 / Fold change vs veh, ESF1 / Fold change vs veh, TMEM50B / RFU, TAOK1 / Fold change vs veh, TAOK1 / RFU, ACBD3 / Fold change vs veh, ACBD3 / RFU, TMA16 / Fold change vs veh, TMA16 / RFU, RWDD3 / Fold change vs veh, RWDD3 / RFU, BCAT1 / Fold change vs veh, BCAT1 / RFU, EDEM3 / Fold change vs veh, EDEM3 / RFU, TMEM33 / Fold change vs veh, TMEM33 / RFU, WDR75 / Fold change vs veh, WDR75 / RFU, AHCTF1 / Fold change vs veh, AHCTF1 / RFU, TFRC / Fold change vs veh, TFRC / RFU, ZDHHC17 / Fold change vs veh, ZDHHC17 / RFU, NOM1 / Fold change vs veh, NOM1 / RFU, ARL8B / Fold change vs veh, ARL8B / RFU, ZBTB11 / Fold change vs veh, ZBTB11 / RFU, TAMM41 / Fold change vs veh, TAMM41 / RFU, KIAA1704 /// LOC100996395 / Fold change vs veh, KIAA1704 /// LOC100996395 / RFU, ING1 / Fold change vs veh, ING1 / RFU, TRMT61B / Fold change vs veh, TRMT61B / RFU, FUBP3 / Fold change vs veh, FUBP3 / RFU, TP53 / Fold change vs veh, TP53 / RFU, TNKS2 / Fold change vs veh, TNKS2 / RFU, ZFP14 / Fold change vs veh, ZFP14 / RFU, ACTR2 / Fold change vs veh, ACTR2 / RFU, PPP3R1 / Fold change vs veh, PPP3R1 / RFU, PIK3R1 / Fold change vs veh, PIK3R1 / RFU, HNRNPA1 / Fold change vs veh, HNRNPA1 / RFU, RNF170 / Fold change vs veh, RNF170 / RFU, ZNF28 / Fold change vs veh, ZNF28 / RFU, RNGTT / Fold change vs veh, RNGTT / RFU, OGT / Fold change vs veh, OGT / RFU, BRD1 / Fold change vs veh, BRD1 / RFU, MARS / Fold change vs veh, MARS / RFU, ZNF655 / Fold change vs veh, ZNF655 / RFU, FAHD1 / Fold change vs veh, FAHD1 / RFU, BDP1 / Fold change vs veh, BDP1 / RFU, LRRCC1 / Fold change vs veh, LRRCC1 / RFU, ARID1A / Fold change vs veh, ARID1A / RFU, ZNF146 / Fold change vs veh, ZNF146 / RFU, ZNF330 / Fold change vs veh, ZNF330 / RFU, GPN3 / Fold change vs veh, GPN3 / RFU, C9orf123 / Fold change vs veh, C9orf123 / RFU, N4BP2L2 / Fold change vs veh, N4BP2L2 / RFU, ARFIP1 / Fold change vs veh, ARFIP1 / RFU, FAM179B / Fold change vs veh, FAM179B / RFU, BCL10 / Fold change vs veh, BCL10 / RFU, UHRF1BP1L / Fold change vs veh, UHRF1BP1L / RFU, BET1 / Fold change vs veh, BET1 / RFU, CNOT2 / Fold change vs veh, CNOT2 / RFU, ZNF268 / Fold change vs veh, ZNF268 / Fold change vs veh, ZNF507 / RFU, DGCR2 / Fold change vs veh, DGCR2 / RFU, WDSUB1 / Fold change vs veh, WDSUB1 / Fold change vs veh, HSP90B1 /// MIR3652 / RFU, ADSS / Fold change vs veh, ADSS / RFU, GK / Fold change vs veh, GK / RFU, ZNF148 / Fold change vs veh, ZNF148 / RFU, TAF9 / Fold change vs veh, TAF9 / RFU, SLC1A5 / Fold change vs veh, SLC1A5 / RFU, SLMO2 / Fold change vs veh, SLMO2 / RFU, ABCC4 / Fold change vs veh, ABCC4 / RFU, LOC101060439 /// RAP1B / Fold change vs veh, LOC101060439 /// RAP1B / RFU, RFX7 / Fold change vs veh, RFX7 / RFU, GTPBP10 / Fold change vs veh, GTPBP10 / RFU, CNEP1R1 / Fold change vs veh, CNEP1R1 / RFU, BIVM-ERCC5 /// ERCC5 / Fold change vs veh, BIVM-ERCC5 /// ERCC5 / RFU, ILF3 / Fold change vs veh, ILF3 / RFU 11762660_at / Fold change /veh 11762660_at / RFU VCAN (11757783_s_at) / Fold change /veh VCAN (11757783_s_at) / RFU DDX43 (11728927_at) / Fold change /veh DDX43 (11728927_at) / RFU KRT8 (11758188_x_at) / Fold change /veh KRT8 (11758188_x_at) / RFU NKD1 (11759106_at) / Fold change /veh NKD1 (11759106_at) / RFU SRD5A1 (11742802_a_at) / Fold change /veh SRD5A1 (11742802_a_at) / RFU TPSAB1 /// TPSB2 (11721975_s_at) / Fold change /veh TPSAB1 /// TPSB2 (11721975_s_at) / RFU GSTM3 (11746129_a_at) / Fold change /veh GSTM3 (11746129_a_at) / RFU IL23R (11737362_x_at) / Fold change /veh IL23R (11737362_x_at) / RFU TMEM51 (11727254_a_at) / Fold change /veh TMEM51 (11727254_a_at) / RFU PIWIL2 (11732686_x_at) / Fold change /veh PIWIL2 (11732686_x_at) / RFU ORM1 (11744905_x_at) / Fold change /veh ORM1 (11744905_x_at) / RFU CCDC152 (11743942_at) / Fold change /veh CCDC152 (11743942_at) / RFU ECM1 (11717891_a_at) / Fold change /veh ECM1 (11717891_a_at) / RFU IL23R (11748794_a_at) / Fold change /veh IL23R (11748794_a_at) / RFU TNFAIP8L3 (11732012_x_at) / Fold change /veh TNFAIP8L3 (11732012_x_at) / RFU MBOAT4 (11741988_at) / Fold change /veh MBOAT4 (11741988_at) / RFU 11764193_at / Fold change /veh 11764193_at / RFU TMEM53 (11763286_at) / Fold change /veh TMEM53 (11763286_at) / RFU MAGEB2 (11727129_at) / Fold change /veh MAGEB2 (11727129_at) / RFU TMEM200A (11744735_a_at) / Fold change /veh TMEM200A (11744735_a_at) / RFU CCDC152 (11751479_a_at) / Fold change /veh CCDC152 (11751479_a_at) / RFU FAM211A (11726209_a_at) / Fold change /veh FAM211A (11726209_a_at) / RFU RGS16 (11746705_a_at) / Fold change /veh RGS16 (11746705_a_at) / RFU VCAN (11755009_s_at) / Fold change /veh VCAN (11755009_s_at) / RFU RHOB (11743442_s_at) / Fold change /veh RHOB (11743442_s_at) / RFU RGS16 (11720943_a_at) / Fold change /veh RGS16 (11720943_a_at) / RFU RGS16 (11720944_at) / Fold change /veh RGS16 (11720944_at) / RFU, VPS4B / Fold change vs veh, VPS4B / RFU, CREB1 / Fold change vs veh, CREB1 / RFU, DNAJC13 / Fold change vs veh, DNAJC13 / RFU, GNAQ / Fold change vs veh, GNAQ / RFU, CDK5R1 / Fold change vs veh, CDK5R1 / RFU, ZRANB3 / Fold change vs veh, ZRANB3 / RFU, CUL4A / Fold change vs veh, CUL4A / RFU, CCNY / Fold change vs veh, CCNY / RFU, UFL1 / Fold change vs veh, UFL1 / RFU, COG3 / Fold change vs veh, COG3 / RFU, DIAPH2 / Fold change vs veh, DIAPH2 / RFU, SKA2 / Fold change vs veh, SKA2 / RFU, AFF3 / Fold change vs veh, AFF3 / RFU, LMF1 / Fold change vs veh, LMF1 / RFU, IPO11 / Fold change vs veh, IPO11 / RFU, DFFB / Fold change vs veh, DFFB / RFU, FOXP1 / Fold change vs veh, FOXP1 / RFU, CARD8 / Fold change vs veh, CARD8 / RFU, STRN3 / Fold change vs veh, STRN3 / RFU, ADK / Fold change vs veh, ADK / RFU, RASSF2 / Fold change vs veh, RASSF2 / RFU, WIPF1 / Fold change vs veh, WIPF1 / RFU, LARP1B / Fold change vs veh, LARP1B / RFU, RASA1 / Fold change vs veh, RASA1 / RFU, RB1 / Fold change vs veh, RB1 / RFU, PPFIA1 / Fold change vs veh, PPFIA1 / RFU, MAT2A / Fold change vs veh, MAT2A / RFU, CCT5 / Fold change vs veh, CCT5 / RFU, WDR92 / Fold change vs veh, WDR92 / RFU, CUX1 / Fold change vs veh, CUX1 / RFU, TTC7A / Fold change vs veh, TTC7A / RFU, TMEM135 / Fold change vs veh, TMEM135 / RFU, DEPTOR / Fold change vs veh, DEPTOR / RFU, CPM / Fold change vs veh, CPM / RFU, DNAJB6 / Fold change vs veh, DNAJB6 / RFU, CACNA2D3 / Fold change vs veh, CACNA2D3 / RFU, DTX4 / Fold change vs veh, DTX4 / RFU, TFCP2 / Fold change vs veh, TFCP2 / RFU, GMCL1 /// GMCL1P1 / Fold change vs veh, GMCL1 /// GMCL1P1 / RFU, AEBP2 / Fold change vs veh, AEBP2 / RFU, SNHG1 /// SNORD22 /// SNORD25 /// SNORD26 /// SNORD27 /// SNORD28 /// SNORD29 /// SNORD31 / Fold change vs veh, SNHG1 /// SNORD22 /// SNORD25 /// SNORD26 /// SNORD27 /// SNORD28 /// SNORD29 /// SNORD31 / Fold change (Aza/veh), C12orf56 (ProbeSet 11735607_a_at) / Fold change (ACY-1035/veh), C12orf56 (ProbeSet 11735607_a_at) / Fold change (Aza/veh), FGFR1OP (ProbeSet 11751329_s_at) / Fold change (ACY-1035/veh), FGFR1OP (ProbeSet 11751329_s_at) / Fold change (Aza/veh), VPS36 (ProbeSet 11739960_a_at) / Fold change (ACY-1035/veh), VPS36 (ProbeSet 11739960_a_at) / RFU SYPL1 (11715823_x_at) / Fold change /veh SYPL1 (11715823_x_at) / RFU IGFBP7 (11715501_s_at) / Fold change /veh IGFBP7 (11715501_s_at) / RFU REEP3 (11722064_at) / Fold change /veh REEP3 (11722064_at) / RFU IGLL1 (11728026_x_at) / Fold change /veh IGLL1 (11728026_x_at): dose or concentration left out as unconfirmed
# Conditions: ProbeSet 11759095_at; LIST D
compound,measurement,value
Nc1ccc(-c2cccs2)cc1NC(=O)c1ccc2c(c1)cc(C1CC1)n2CCN1CCOCC1 [ACY-1035],"RFU, GNAQ",901.39 RFU
